Assay results reported in patent US10669287B2, “Curcumin-boron complex and pharmaceutical containing same” (JAPAN SCIENCE AND TECHNOLOGY AGENCY, priority 2016, dated 2020).

Legend:
[1] = test system: PC 12 cells; experiment: Cytotoxicity under light irradiation, WST-8 cell viability, Test Example 2; assay type: cell-based, rat; conditions: LED 660 nm, 10 mW, 5 minutes, then 48 hours
Description: A culture medium for rat adrenal medulla-derived pheochromocytoma PC 12 cells (purchased from RIKEN, Japan) seeded on a poly-D-lysine-coated 96-well plate was replaced with 75 μL of a Dulbecco's modified Eagle's medium containing 0.1% horse serum, and the culture was incubated in a 5% CO2 atmosphere at 37° C. for 1 day, and 25 μL of a phosphate buffer saline (pH 7.4) containing a inventive compound was then added thereto. Thereafter, the mixed solution was incubated under LED irradiation (wavelength: 660 nm, 10 mW) (without light irradiation for dark) at 37° C. for 5 minutes. Further, the cell culture plate containing the reaction solution was incubated in a 5% CO2 atmosphere at 37° C. for 48 hours. Finally, the Cell Count Reagent SF (10 μL: purchased from NACALAI TESQUE, INC.) containing WST-8 was added, and the culture was incubated in a 5% CO2 atmosphere at 37° C. for 3 hours, and thereafter the cell viability was determined from the absorbance at 450 nm (reference wavelength: 655 nm).

[2] = Conversion of furfuryl alcohol under different glycerol concentrations, Test Example 8; conditions: compound 2 μM, furfuryl alcohol 2 mM, glycerol-methanol 0, 10, 30, or 50% glycerol, 780 nm, room temperature
Description: (§1) To a glycerol-methanol mixed solvent (glycerol: 0, 10, 30, or 50%), furfuryl alcohol or N-benzoyl-Met (2 mM in each case) and the compound E (2 μM) were added, and the mixture was subjected to light irradiation (wavelength: 780 nm) at room temperature, and the concentration of furfuryl alcohol or N-benzoyl-Met was quantified by using a UV absorptiometer with LC/MS 10 minutes, 20 minutes, and 30 minutes after the initiation of light irradiation.

[3] = test system: Arctic Aβ1-42; experiment: Oxygenation reaction in mouse brain extract, Test Example 6; assay type: biochemical; conditions: mouse brain lysate, light 780 nm
Description: The brain excised from an eight-month-old App knock-in (App^NL-C-F/NL-C-F) mouse (Alzheimer's model mouse) was separated into the cerebral cortex, the hippocampus, and the residual brain tissues. The cerebral cortex and the hippocampus were homogenized together in a phosphate buffer saline, and the suspension was stored at −80° C. […] At an arbitrary point of time, an arbitrary aliquot of the reaction mixture was diluted with formic acid to a final concentration of 70%, concentrated, and redissolved in a 6 M aqueous solution of urea.

[4] = Stability of catalyst in neutral phosphate buffer without or under light irradiation (HPLC), Test Example 5; assay type: physicochemical; conditions: under light irradiation (660 nm)
Description: A neutral phosphate buffer containing a catalyst was incubated without light irradiation or under light irradiation (660 nm), and thereafter ethanol containing benzyl alcohol (as an internal standard) was added thereto, and analysis was performed by using HPLC.

[5] = Conversion of N-benzoyl-Met under different glycerol concentrations, Test Example 8; conditions: compound 2 μM, N-benzoyl-Met 2 mM, glycerol-methanol 0, 10, 30, or 50% glycerol, 780 nm, room temperature
Description: as §1

[6] = target: T1, Aβ1-42 (Homo sapiens, UniProt P05067); experiment: In vitro oxygenation experiment using Aβ1-42 as a substrate (MALDI-TOF MS), Test Example 1; assay type: biochemical; conditions: test compound 1 μM, Aβ1-42 10 μM, LED irradiation at both 660 nm and 730 nm, 37° C.
T1 construct: phosphate buffer (pH 7.4)/cell culture solution (containing 0.1% horse serum) (1:3) containing Aβ1-42 (10 μM)
Description: An in vitro oxygenation experiment using Aβ1-42 as a substrate was conducted to confirm that each of the inventive compounds actually have Aβ oxygenation activity. A test compound (1 μM in each case) was added to phosphate buffer (pH 7.4)/cell culture solution (containing 0.1% horse serum) (1:3) containing Aβ1-42 (10 μM), and incubated under LED irradiation (wavelength: 660 nm, 730 nm) at 37° C., and then the reaction was tracked by using a mass spectrometer (MALDI-TOF MS). The native Aβ1-42 and the Na^+ adduct were mainly observed before light irradiation. After light irradiation, an ion peak indicating the presence of the oxygenated form was observed over time (FIG. 1, FIG. 2).

[7] = Maximum wavelength λmax of photocatalysts; assay type: physicochemical; conditions: Table 2
[8] = test system: PC 12 cells; experiment: Action on cells through selective oxygenation of Aβ1-42, WST-8 cell viability, Test Example 3; assay type: cell-based, rat; conditions: Aβ 10 μM, compound E 1 or 3 μM, 48 hours
Description: A phosphate buffer saline (pH 7.4) containing Aβ (40 μM) was incubated at 37° C. for 3 hours. Subsequently, the compound E was added thereto (4 or 12 μM). A culture medium for rat adrenal medulla-derived pheochromocytoma PC 12 cells (purchased from RIKEN, Japan) seeded on a poly-D-lysine-coated 96-well plate was replaced with 75 μL of a Dulbecco's modified Eagle's medium containing 0.1% horse serum, and the culture was incubated in a 5% CO2 atmosphere at 37° C. for 1 day, and 25 μL of the phosphate buffer saline (pH 7.4) containing Aβ and the compound E was then added thereto (final volume: 100 μL, final concentration of Aβ: 10 μM, final concentration of compound E: 1 or 3 μM). […] Finally, the Cell Count Reagent SF (10 μL: purchased from NACALAI TESQUE, INC.) containing WST-8 was added, and the culture was incubated in a 5% CO2 atmosphere at 37° C. for 3 hours, and thereafter the cell viability was determined from the absorbance at 450 nm (reference wavelength: 655 nm).
From the results shown in FIG. 4, an attempt was made to examine whether the toxicity of Aβ1-42 can be reduced through oxygenation of the Aβ1-42 in the presence of cells. […] The cell viability was determined through measurement of the absorption by WST-8 at 450 nm by using a plate reader.

[9] = target: T1, Aβ1-42; experiment: Oxygenation under mouse skin, Test Example 7; assay type: in vivo; conditions: microtube with Aβ1-42 20 μM aggregated 3 hours, implanted in back skin, LED 780 nm, 30 minutes
Description: A microtube containing a phosphate buffer containing Aβ1-42 (20 μM, aggregated in advance for 3 hours) and the compound E or a compound 3 [9-(6-bromo-3-methyl-1,3-benzotriazol-3-ium-2-yl)-julolidine] was implanted in the back skin of a wild mouse, and light irradiation with an LED lamp was performed from the outside of the mouse body at a wavelength of 780 nm for 30 minutes (FIG. 10). As a control experiment, another microtube containing the same components (Aβ1-42 (20 μM, aggregated in advance for 3 hours) and the compound E or the compound 3) was directly subjected to light irradiation outside of the mouse body. The reaction mixture was analyzed by using a MALDI-TOF MS, and then subjected to ZipTip treatment for analysis. The percentage of oxygenation ratio was calculated from the percentage of oxygenation ratio under the skin and the oxygenation ratio outside of the skin “[oxygenation ratio under mouse skin/oxygenation ratio outside of mouse skin]×100”.

T1 sequence (P05067 672-713): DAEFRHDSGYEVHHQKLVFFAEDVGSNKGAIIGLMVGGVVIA

In the case of `O=C(O)CCCCCN1CCCc2cc(/C=C/C3=[O+][B-](F)(C(F)(F)C(F)(F)F)OC(/C=C/c4cc5c6c(c4)CCCN6CCC5)=C3Br)ccc21` (stereo not drawn) [Compound E], the “toxicity under light irradiation (ranking)” value [1] is reported as “the lowest”, the “oxygenation reaction rate of furfuryl alcohol” value [2] is reported as “higher as the viscosity of the solvent was higher” and the “decrease of peak intensity (conversion) of Arctic Aβ1-42” value (“decrease of peak intensity” for short) ([3]; 30 minutes) is reported as 43%. For the same molecule, the “decrease of peak intensity” value ([3]; 60 minutes) was 60%, the “decrease of peak intensity” value ([3]; 150 minutes) was 83% and the “stability of catalyst (ranking)” value [4] was “stability was higher”. For the same molecule, the “oxygenation of N-benzoyl-Met” value [5] was “accelerated as the viscosity of the solvent was higher”, the “oxygenation of Aβ1-42 under light irradiation” value [6] was “oxygenation of the Aβ proceeded” and the “Maximum wavelength λmax (nm)” value [7] was 639 nm. For the same molecule, the “cell viability with Aβ1-42 and compound E” value ([8]; under LED irradiation 660 nm, 10 mW, 5 minutes) was “the cell viability was significantly improved”, the “cell viability with Aβ1-42 and compound E” value ([8]; without light irradiation) was “significant cell death” and the “percentage of oxygenation ratios [oxygenation ratio under mouse skin/oxygenation ratio outside of mouse skin]×100” value [9] was 65%.
